Test results published in patent publication US12679843B2, “Pyrrolopyrimidine amines as complement inhibitors” (BioCryst Pharmaceuticals, Inc., priority 2020, dated 2026).

Target: Factor D (Homo sapiens, UniProt P00746)
Experiment: Factor D esterolytic assay (Z-Lys-SBzl thioester substrate, DTNB, 405 nm)
Format: biochemical
Conditions: substrate Z-Lys-SBzl 1.29 mM, 100 mM HEPES, 500 mM NaCl, pH 7.5, 10% DMSO, tested a minimum of three times
How it was run: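 Human Factor D hydrolysis of Z-Lys-SBzl (1.29 mM) monitored at 405 nm via DTNB thiol detection for 600 s, 690 nm background subtracted. Buffer 100 mM HEPES, 500 mM NaCl, pH 7.5, 10% DMSO; substrate added immediately or after room-temperature preincubation. IC50 from percent inhibition of rate, at least three tests.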

Sequence of Factor D (P00746 26-253): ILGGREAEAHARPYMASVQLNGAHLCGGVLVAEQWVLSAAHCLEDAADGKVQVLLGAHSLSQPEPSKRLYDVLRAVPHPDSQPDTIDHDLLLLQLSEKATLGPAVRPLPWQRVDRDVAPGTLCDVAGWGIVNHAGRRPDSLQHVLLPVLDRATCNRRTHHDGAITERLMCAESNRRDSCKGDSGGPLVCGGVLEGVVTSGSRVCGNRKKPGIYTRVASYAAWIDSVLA

`Cc1ccc(-c2cc(C)c3c(c2)c2c(N)ncnc2n3CC(=O)N2[C@H](C(=O)Nc3cccc(Br)n3)C[C@@]3(C)C[C@@H]23)cc1` [Compound 255c, (1R,3S,5R)-2-(2-(4-amino-8-methyl-6-(p-tolyl)-9H-pyrimido[4,5-b]indol-9-yl)acetyl)-N-(6-bromopyridin-2-yl)-5-methyl-2-azabicyclo[3.1.0]hexane-3-carboxamide] was tested. Which IC50 did it give?
Its IC50 is less than 100 nM.

For `Cc1cc(C2CC2)cc2c3c(N)ncnc3n(CC(=O)N3[C@@H]4C[C@@H]4C[C@H]3C(=O)Nc3cccc(Br)n3)c12` [Compound 360c, (1R,3S,5R)-2-(2-(4-amino-6-cyclopropyl-8-methyl-9H-pyrimido[4,5-b]indol-9-yl)acetyl)-N-(6-bromopyridin-2-yl)-2-azabicyclo[3.1.0]hexane-3-carboxamide], which IC50 is on record?
The IC50 was less than 100 nM.

How did the IC50 turn out when `Nc1ncnc2c1c1cc(C(F)(F)F)ccc1n2CC(=O)N1[C@@H]2C[C@@H]2C[C@H]1C(=O)Nc1ccccn1` [Compound 272c, (1R,3S,5R)-2-(2-(4-amino-6-(trifluoromethyl)-9H-pyrimido[4,5-b]indol-9-yl)acetyl)-N-(pyridin-2-yl)-2-azabicyclo[3.1.0]hexane-3-carboxamide] was run?
The IC50 was 100 to 1000 nM.

For `Nc1ccnc2c1ccn2CC(=O)N1[C@@H]2C[C@@H]2C[C@H]1C(=O)Nc1cccc(Br)n1` [Compound 83d, (1R,3S,5R)-2-(2-(4-amino-1H-pyrrolo[2,3-b]pyridin-1-yl)acetyl)-N-(6-bromopyridin-2-yl)-2-azabicyclo[3.1.0]hexane-3-carboxamide], which IC50 is on record?
Its IC50 is 100 to 1000 nM.

For `COc1cc2c(cc1C)c1c(N)ncnc1n2CC(=O)N1[C@H](C(=O)Nc2cccc(Br)n2)C[C@@]2(C)C[C@@H]12` [Compound 329a, (1R,3S,5R)-2-(2-(4-amino-7-methoxy-6-methyl-9H-pyrimido[4,5-b]indol-9-yl)acetyl)-N-(6-bromopyridin-2-yl)-5-methyl-2-azabicyclo[3.1.0]hexane-3-carboxamide], which IC50 is on record?
Its IC50 is less than 100 nM.

Which IC50 does the source give for `CSc1cn(CC(=O)N2[C@@H]3C[C@@H]3C[C@H]2C(=O)Nc2cccc(Br)n2)c2ncnc(N)c12` [Compound 154e, (1R,3S,5R)-2-(2-(4-amino-5-(methylthio)-7H-pyrrolo[2,3-d]pyrimidin-7-yl)acetyl)-N-(6-bromopyridin-2-yl)-2-azabicyclo[3.1.0]hexane-3-carboxamide] here?
Its IC50 is 100 to 1000 nM.

How did the IC50 turn out when `C[C@@]12C[C@@H](C(=O)Nc3cccc(Br)n3)N(C(=O)Cn3c4ccc(C(F)(F)F)nc4c4c(N)ncnc43)[C@@H]1C2` [Compound 231g, (1R,3S,5R)-2-(2-(4-amino-6-(trifluoromethyl)-9H-pyrido[2′,3′:4,5]pyrrolo[2,3-d]pyrimidin-9-yl)acetyl)-N-(6-bromopyridin-2-yl)-5-methyl-2-azabicyclo[3.1.0]hexane-3-carboxamide] was run?
Its IC50 is less than 100 nM.

For `N#C[C@@H]1C[C@@H](C(=O)Nc2cccc(Br)n2)N(C(=O)Cn2c3ccc(C(F)(F)F)cc3c3c(N)ncnc32)C1` [Compound 178d, (2S,4R)-1-(2-(4-amino-6-(trifluoromethyl)-9H-pyrimido[4,5-b]indol-9-yl)acetyl)-N-(6-bromopyridin-2-yl)-4-cyanopyrrolidine-2-carboxamide], which IC50 is on record?
The IC50 was 100 to 1000 nM.

With `Nc1ncnc2c1ncn2CC(=O)N1[C@@H]2C[C@@H]2C[C@H]1C(=O)N[C@@H]1C[C@H]1c1ccccc1Cl` [Compound 98b, (1R,3S,5R)-2-(2-(6-amino-9H-purin-9-yl)acetyl)-N-((1R,2S)-2-(2-chlorophenyl)cyclopropyl)-2-azabicyclo[3.1.0]hexane-3-carboxamide] as the compound, how does the IC50 read?
Its IC50 is 100 to 1000 nM.

For `COc1ccc2c3c(N)ncnc3n(CC(=O)N3[C@H](C(=O)Nc4cccc(Br)n4)C[C@@]4(C)C[C@@H]34)c2c1` [Compound 37a, (1R,3S,5R)-2-(2-(4-amino-7-methoxy-9H-pyrimido[4,5-b]indol-9-yl)acetyl)-N-(6-bromopyridin-2-yl)-5-methyl-2-azabicyclo[3.1.0]hexane-3-carboxamide], which IC50 is on record?
Its IC50 is less than 100 nM.

`Nc1ncnc2c1ccn2CC(=O)N1C[C@H](F)C[C@H]1C(=O)NCc1cccc(Cl)c1F` [Compound 64a, (2S,4R)-1-(2-(4-amino-7H-pyrrolo[2,3-d]pyrimidin-7-yl)acetyl)-N-(3-chloro-2-fluorobenzyl)-4-fluoropyrrolidine-2-carboxamide] was tested. Which IC50 did it give?
Its IC50 is less than 100 nM.

`N#Cc1cn(CC(=O)N2C[C@H](F)C[C@H]2C(=O)NCc2cccc(Cl)c2F)c2ncnc(N)c12` [Compound 130e, (2S,4R)-1-(2-(4-amino-5-cyano-7H-pyrrolo[2,3-d]pyrimidin-7-yl)acetyl)-N-(3-chloro-2-fluorobenzyl)-4-fluoropyrrolidine-2-carboxamide] was tested. Which IC50 did it give?
The IC50 was 100 to 1000 nM.

With `COc1ccc2c(c1)c1c(N)ncnc1n2CC(=O)N1[C@@H]2C[C@@H]2C[C@H]1C(=O)Nc1cccc(Br)n1` [Compound 38e, (1R,3S,5R)-2-(2-(4-amino-6-methoxy-9H-pyrimido[4,5-b]indol-9-yl)acetyl)-N-(6-bromopyridin-2-yl)-2-azabicyclo[3.1.0]hexane-3-carboxamide] as the compound, how does the IC50 read?
Its IC50 is less than 100 nM.

For `Cc1nc2c(N)ncnc2n1CC(=O)N1C[C@H](F)C[C@H]1C(=O)NCc1cccc(Cl)c1F` [Compound 152d, (2S,4R)-1-(2-(6-amino-8-methyl-9H-purin-9-yl)acetyl)-N-(3-chloro-2-fluorobenzyl)-4-fluoropyrrolidine-2-carboxamide], which IC50 is on record?
Its IC50 is 100 to 1000 nM.

With `Nc1ncnc2c1c1cc(Br)c(F)cc1n2CC(=O)N1[C@@H]2C[C@@H]2C[C@H]1C(=O)Nc1cccc(Br)n1` [Compound 389g, (1R,3S,5R)-2-(2-(4-amino-6-bromo-7-fluoro-9H-pyrimido[4,5-b]indol-9-yl)acetyl)-N-(6-bromopyridin-2-yl)-2-azabicyclo[3.1.0]hexane-3-carboxamide] as the compound, how does the IC50 read?
The IC50 was less than 100 nM.

With `C[C@@]12C[C@@H](C(=O)Nc3cccc(Br)n3)N(C(=O)Cc3ccc4c(N)ncnn34)[C@@H]1C2` [Compound 71a, (1R,3S,5R)-2-(2-(4-aminopyrrolo[2,1-f][1,2,4]triazin-7-yl)acetyl)-N-(6-bromopyridin-2-yl)-5-methyl-2-azabicyclo[3.1.0]hexane-3-carboxamide] as the compound, how does the IC50 read?
Its IC50 is 100 to 1000 nM.

For `Cc1cc(F)c2c(c1)c1c(N)ncnc1n2CC(=O)N1[C@@H]2C[C@@H]2C[C@H]1C(=O)Nc1cccc(Br)n1` [Compound 391g, (1R,3S,5R)-2-(2-(4-amino-8-fluoro-6-methyl-9H-pyrimido[4,5-b]indol-9-yl)acetyl)-N-(6-bromopyridin-2-yl)-2-azabicyclo[3.1.0]hexane-3-carboxamide], which IC50 is on record?
The IC50 was less than 100 nM.

How did the IC50 turn out when `COC(=O)c1cnc2c(ccn2CC(=O)N2[C@@H]3C[C@@H]3C[C@H]2C(=O)Nc2cccc(Br)n2)c1` [Compound 127d, methyl 1-(2-((1R,3S,5R)-3-((6-bromopyridin-2-yl)carbamoyl)-2-azabicyclo[3.1.0]hexan-2-yl)-2-oxoethyl)-1H-pyrrolo[2,3-b]pyridine-5-carboxylate] was run?
The IC50 was greater than 1000 nM.

`Cc1ccc(Br)nc1NC(=O)[C@@H]1C[C@H]2C[C@H]2N1C(=O)Cn1c2ncnc(N)c2c2cc(C(F)(F)F)cc(C)c21` [Compound 303a, (1R,3S,5R)-2-(2-(4-amino-8-methyl-6-(trifluoromethyl)-9H-pyrimido[4,5-b]indol-9-yl)acetyl)-N-(6-bromo-3-methylpyridin-2-yl)-2-azabicyclo[3.1.0]hexane-3-carboxamide] was tested. Which IC50 did it give?
The IC50 was less than 100 nM.

How did the IC50 turn out when `Cc1ncc(-c2cn(CC(=O)N3C[C@H](F)C[C@H]3C(=O)NCc3cccc(Cl)c3F)c3ncnc(N)c23)cn1` [Compound 117d, (2S,4R)-1-(2-(4-amino-5-(2-methylpyrimidin-5-yl)-7H-pyrrolo[2,3-d]pyrimidin-7-yl)acetyl)-N-(3-chloro-2-fluorobenzyl)-4-fluoropyrrolidine-2-carboxamide] was run?
The IC50 was 100 to 1000 nM.

With `COC(=O)c1ccc2c3c(N)ncnc3n(CC(=O)N3[C@H](C(=O)Nc4cccc(Br)n4)C[C@@]4(C)C[C@@H]34)c2c1` [Compound 42a, methyl 4-amino-9-(2-((1R,3S,5R)-3-((6-bromopyridin-2-yl)carbamoyl)-5-methyl-2-azabicyclo[3.1.0]hexan-2-yl)-2-oxoethyl)-9H-pyrimido[4,5-b]indole-7-carboxylate] as the compound, how does the IC50 read?
The IC50 was less than 100 nM.

For `Cc1cc(C)c2c(c1)c1c(N)ncnc1n2CC(=O)N1[C@H](C(=O)Nc2cncc(Br)n2)C[C@@]2(C)C[C@@H]12` [Compound 314a, (1R,3S,5R)-2-(2-(4-amino-6,8-dimethyl-9H-pyrimido[4,5-b]indol-9-yl)acetyl)-N-(6-bromopyrazin-2-yl)-5-methyl-2-azabicyclo[3.1.0]hexane-3-carboxamide], which IC50 is on record?
The IC50 was less than 100 nM.

For `Cc1cc(Br)cc2c3c(N)ncnc3n(CC(=O)N3[C@H](C(=O)Nc4cccc(Br)n4)C[C@@]4(C)C[C@@H]34)c12` [Compound 193a, (1R,3S,5R)-2-(2-(4-amino-6-bromo-8-methyl-9H-pyrimido[4,5-b]indol-9-yl)acetyl)-N-(6-bromopyridin-2-yl)-5-methyl-2-azabicyclo[3.1.0]hexane-3-carboxamide], which IC50 is on record?
Its IC50 is less than 100 nM.

`Nc1ncnc2c1c1nc(-c3cccnc3)ccc1n2CC(=O)N1[C@@H]2C[C@@H]2C[C@H]1C(=O)Nc1cccc(Br)n1` [Compound 371c, (1R,3S,5R)-2-(2-(4-amino-6-(pyridin-3-yl)-9H-pyrido[2′,3′:4,5]pyrrolo[2,3-d]pyrimidin-9-yl)acetyl)-N-(6-bromopyridin-2-yl)-2-azabicyclo[3.1.0]hexane-3-carboxamide] was tested. Which IC50 did it give?
Its IC50 is 100 to 1000 nM.

How did the IC50 turn out when `Cc1cc(C(F)(F)F)cc2c3c(N)ncnc3n(CC(=O)N3C[C@H](F)C[C@H]3C(=O)Nc3cccc(Br)n3)c12` [Compound 301a, (2S,4R)-1-(2-(4-amino-8-methyl-6-(trifluoromethyl)-9H-pyrimido[4,5-b]indol-9-yl)acetyl)-N-(6-bromopyridin-2-yl)-4-fluoropyrrolidine-2-carboxamide] was run?
The IC50 was less than 100 nM.

With `COc1cccc(-c2cc(C)c3c(c2)c2c(N)ncnc2n3CC(=O)N2[C@H](C(=O)Nc3cccc(Br)n3)C[C@@]3(C)C[C@@H]23)c1` [Compound 342a, (1R,3S,5R)-2-(2-(4-amino-6-(3-methoxyphenyl)-8-methyl-9H-pyrimido[4,5-b]indol-9-yl)acetyl)-N-(6-bromopyridin-2-yl)-5-methyl-2-azabicyclo[3.1.0]hexane-3-carboxamide] as the compound, how does the IC50 read?
The IC50 was less than 100 nM.
